Experimental data taken from paper PMC5447808 (Pulmonary pharmacology & therapeutics, 2017).

How the values were obtained:
[1] = molecular target: T1, KAT8 (lysine acetyltransferase 8) (Homo sapiens, UniProt Q9H7Z6); assay: enzyme kinetics, Km app. for Ac-CoA without inhibitor; assay type: biochemical; conditions: read-out: Ac-CoA / Km app.
T1 sequence (Q9H7Z6 2-458): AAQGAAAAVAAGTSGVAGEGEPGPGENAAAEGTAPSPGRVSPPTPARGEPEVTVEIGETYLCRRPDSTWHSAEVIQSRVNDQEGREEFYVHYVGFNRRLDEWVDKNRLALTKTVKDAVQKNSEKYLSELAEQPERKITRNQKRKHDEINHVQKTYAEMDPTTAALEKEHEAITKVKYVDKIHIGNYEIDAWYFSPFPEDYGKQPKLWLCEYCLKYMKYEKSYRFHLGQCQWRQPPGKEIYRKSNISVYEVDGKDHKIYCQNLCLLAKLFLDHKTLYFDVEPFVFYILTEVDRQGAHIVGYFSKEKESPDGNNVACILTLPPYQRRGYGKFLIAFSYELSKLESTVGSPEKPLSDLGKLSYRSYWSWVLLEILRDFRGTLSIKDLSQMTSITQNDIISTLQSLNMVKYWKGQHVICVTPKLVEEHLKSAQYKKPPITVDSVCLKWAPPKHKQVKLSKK

[2] = molecular target: T1, KAT8 (lysine acetyltransferase 8); assay: enzyme kinetics of KAT8 HAT activity, fluorescent detection of CoASH; assay type: biochemical

| Km [1] [µM] | Ki [2] [µM] | Structure (SMILES) |
| --- | --- | --- |
| 4.1 ± 1.1 |  | CC(=O)SCCNC(=O)CCNC(=O)[C@H](O)C(C)(C)COP(=O)(O)OP(=O)(O)OC[C@H]1O[C@@H](n2cnc3c(N)ncnc32)[C@H](O)[C@@H]1OP(=O)(O)O [Ac-CoA] |
|  | 39 ± 7.7 | CCCCCCCc1ccc(CCc2cccc(O)c2C(=O)O)cc1 [MG149] |
